Experiments:
marine organisms = settings: cited from earlier work
human = settings: cited from earlier work
chromosomes = settings: reported in vitro; cited from earlier work
[1] = room temperature; cited from earlier work
[2] = Evaporation rate by isothermal thermogravimetric analysis (TGA); type: physicochemical
Text: DLE is a non-equilibrium evaporation process, because the vapor is swept away from the surface of the liquid before it can reach the equilibrium vapor pressure. The amount of liquid vaporized is thus determined by the evaporation rate. The rate of evaporation of a material can be measured using isothermal thermogravimetric analysis (TGA). In this method, a small sample (typically about 50 milligrams) of a material is held in the pan of a microbalance while a flow of a gas, such as nitrogen, passes over the surface of the material. As vapor leaves the surface of the material, its mass decreases and the microbalance measures the mass of the remaining un-evaporated material. […] The furnace temperature was increased from 110° C. to 115° C. during the time from 160 minutes to 162 minutes, at which time the temperature had stabilized at 115° C. The many mass values measured from 162 minutes until 175 minutes form a nearly continuous thick line in FIG. 1. […]
One class of precursors widely used for ALD and CVD are metal amidinates. One example is (N,N′-di-sec-butylacetamidinato)copper(I) dimer, whose evaporation rate was also measured by the same isothermal TGA method. […]

[3] = Solubility of amidinate precursors in dry, oxygen-free trialkylamine solvent; type: physicochemical; settings: for solubility: in dry
Description: Another important criterion for solvents is that they dissolve a sufficient amount of precursor. Useful concentrations of the solutions are typically larger than 10 weight per cent, larger than 20 weight percent in more preferred embodiments, and larger than 40 weight percent in the most preferred embodiments.
Purification to remove oxygen, moisture and di-n-hexylamine was carried out as follows: 95 g of tri-n-hexylamine was mixed with 1 g of Na and heated to 100° C. under a N2 atmosphere for 3 hours. Then the purified tri-n-hexylamine was distilled out and stored in a glove box under a purified N2 atmosphere. A nickel precursor, bis(N,N′-di-tert-butylacetamidinato)nickel(II),
[drawing 6] was dissolved in the purified dry, oxygen-free tri-n-hexylamine.

[4] = in tri-n-hexylamine and in tri-n-heptylamine

## Cc1cccc2ccccc12 [1-methylnaphthalene]
Marine organisms
  toxicity to marine organisms: highly toxic
human
  effect of repeated human exposure: causes sensitization
chromosomes
  chromosome damage in vitro: cause damage to chromosomes

## CCCCCCCCCCCC [Dodecane, n-dodecane]
[1]
  vapor pressure: around 120 mTorr

## CCCCCCN(CCCCCC)CCCCCC [tri-n-hexylamine]
[2]; 115° C., flow of nitrogen gas at one atmosphere
  evaporation rate: 0.346 mg min^−1 cm^−2

## bis(N,N′-di-sec-butylacetamidinato)copper(I) dimer
[3]; oxygen-free tri-n-hexylamine and in tri-n-heptylamine
  solubility: about 30 weight percent
[2]; 160° C.=433 K, read from FIG. 2, neat precursor into 1 atmosphere nitrogen
  evaporation rate: about 0.8 mg cm^−2 min^−1

## bis(N,N′-di-tert-butylacetamidinato)manganese(II)
[3]; oxygen-free tri-n-hexylamine
  solubility: 42 weight percent

## bis(N,N′-di-tert-butylacetamidinato)nickel(II)
[3]; oxygen-free tri-n-hexylamine
  solubility: 22 weight percent

## bis(N,N′-di-tert-butylacetamidinato)ruthenium(II)tricarbonyl
[3]; [4]
  solubility (in words): moderate

## bis(N,N′-diisopropylacetamidinato)cobalt(II)
[3]; in tri-n-hexylamine
  solubility (in words): high

## bis(N,N′-diisopropylacetamidinato)tin(II)
[3]; in tri-n-hexylamine
  solubility (in words): high

## bis(N,N′-diisopropylpentamidinato)manganese(II)
[3]; oxygen-free tri-n-hexylamine
  solubility: 8 weight percent

## tris(N,N′-diisopropylacetamidinato)yttrium(III)
[3]; [4]
  solubility (in words): high

## tris(N,N′-diisopropylformamidinato)lanthanum(III)
[3]; [4]
  solubility (in words): high

Source: patent US11319452B2, “Vapor source using solutions of precursors in tertiary amines” (President and Fellows of Harvard College, priority 2013, dated 2022)
